Earlier results, collected in patent US20040260072A1, “Hydrophilic, thiol-reactive cyanine dyes and conjugates thereof with biomolecules for fluorescence diagnosis” (priority 2003, published 2004).

Conditions: in DMSO; J Chem Eng Data 1977, 22, 379

- Fluorescence quantum yield Q: 0.13
SMILES: CC1(C)C(/C=C/C=C/C=C/C=C2\N(CCCCS(=O)(=O)O)c3ccc4ccccc4c3C2(C)C)=[N+](CCCCS(=O)(=O)[O-])c2ccc3ccccc3c21 [Indocyanine Green]
